From the NIST ThermoML archive (doi:10.1016/j.jct.2015.07.047)

Conditions: Liquid, Closed cell (Static) method

Cl[SiH](Cl)Cl [trichlorosilane]
Conditions	vapor or sublimation pressure [kPa]
313.34 K	134.1
323.33 K	183.5
333.17 K	245
343 K	321
352.96 K	414.5
362.96 K	528.8

Cl[Si](Cl)(Cl)Cl [silicon tetrachloride]
Conditions	vapor or sublimation pressure [kPa]
318.27 K	66.7
328.25 K	94
338.31 K	129.8
348.08 K	172.9
358.17 K	228.4
368.17 K	295.3

Cl[SiH2]Cl [dichlorosilane]
Conditions	vapor or sublimation pressure [kPa]
313.36 K	290.6
323.35 K	384.1
333.19 K	496.6
343.04 K	631.7
352.98 K	793.4
362.94 K	982.4
